Assay results taken from ChEMBL document CHEMBL3526037, “Evaluation of the relationship between sex, polymorphisms in CYP2C8 and CYP2C9, and pharmacokinetics of angiotensin receptor blockers” (Drug Metab Dispos, 2013).
Each block holds one compound with its values, some of them ahead of it.

How the values were obtained:
Format in all cases: ADME, organism-based
[1] = Tmax in women plasma at 25 to 32 mg by LC/MS/MS analysis; conditions: female, human
[2] = Clearance in men plasma at 25 to 32 mg by LC/MS/MS analysis; conditions: male, human
[3] = Clearance in women plasma at 25 to 32 mg by LC/MS/MS analysis; conditions: female, human
[4] = AUC in men plasma at 25 to 32 mg by LC/MS/MS analysis; conditions: male, human
[5] = AUC in women plasma at 25 to 32 mg by LC/MS/MS analysis; conditions: female, human
[6] = Cmax in men plasma at 25 to 32 mg by LC/MS/MS analysis; conditions: male, human
[7] = Cmax in women plasma at 25 to 32 mg by LC/MS/MS analysis; conditions: female, human
[8] = Half life in men plasma at 25 to 32 mg by LC/MS/MS analysis; conditions: male, human
[9] = Half life in women plasma at 25 to 32 mg by LC/MS/MS analysis; conditions: female, human
[10] = Tmax in men plasma at 25 to 32 mg by LC/MS/MS analysis; conditions: male, human
[11] = AUC in human plasma expressing CYP2C8*1/*1 polymorphism at 25 to 32 mg by LC/MS/MS analysis
[12] = Cmax in human plasma expressing CYP2C8*1/*1 polymorphism at 25 to 32 mg by LC/MS/MS analysis
[13] = Half life in human plasma expressing CYP2C8*1/*1 polymorphism at 25 to 32 mg by LC/MS/MS analysis
[14] = Tmax in human plasma expressing CYP2C8*1/*1 polymorphism at 25 to 32 mg by LC/MS/MS analysis
[15] = Clearance in human plasma expressing CYP2C8*1/*1 polymorphism at 25 to 32 mg by LC/MS/MS analysis
[16] = AUC in human plasma expressing CYP2C8*2 allele carrier polymorphism at 25 to 32 mg by LC/MS/MS analysis
[17] = Cmax in human plasma expressing CYP2C8*2 allele carrier polymorphism at 25 to 32 mg by LC/MS/MS analysis
[18] = Half life in human plasma expressing CYP2C8*2 allele carrier polymorphism at 25 to 32 mg by LC/MS/MS analysis
[19] = Tmax in human plasma expressing CYP2C8*2 allele carrier polymorphism at 25 to 32 mg by LC/MS/MS analysis
[20] = Clearance in human plasma expressing CYP2C8*2 allele carrier polymorphism at 25 to 32 mg by LC/MS/MS analysis
[21] = AUC in human plasma expressing CYP2C8*3 allele carrier polymorphism at 25 to 32 mg by LC/MS/MS analysis
[22] = Cmax in human plasma expressing CYP2C8*3 allele carrier polymorphism at 25 to 32 mg by LC/MS/MS analysis
[23] = Half life in human plasma expressing CYP2C8*3 allele carrier polymorphism at 25 to 32 mg by LC/MS/MS analysis
[24] = Tmax in human plasma expressing CYP2C8*3 allele carrier polymorphism at 25 to 32 mg by LC/MS/MS analysis
[25] = Clearance in human plasma expressing CYP2C8*3 allele carrier polymorphism at 25 to 32 mg by LC/MS/MS analysis
[26] = AUC in human plasma expressing CYP2C8*4 allele carrier polymorphism at 25 to 32 mg by LC/MS/MS analysis
[27] = Cmax in human plasma expressing CYP2C8*4 allele carrier polymorphism at 25 to 32 mg by LC/MS/MS analysis
[28] = Half life in human plasma expressing CYP2C8*4 allele carrier polymorphism at 25 to 32 mg by LC/MS/MS analysis
[29] = Tmax in human plasma expressing CYP2C8*4 allele carrier polymorphism at 25 to 32 mg by LC/MS/MS analysis
[30] = Clearance in human plasma expressing CYP2C8*4 allele carrier polymorphism at 25 to 32 mg by LC/MS/MS analysis
[31] = AUC in human plasma expressing CYP2C9*1/*1 polymorphism at 25 to 32 mg by LC/MS/MS analysis
[32] = Cmax in human plasma expressing CYP2C9*1/*1 polymorphism at 25 to 32 mg by LC/MS/MS analysis
[33] = Half life in human plasma expressing CYP2C9*1/*1 polymorphism at 25 to 32 mg by LC/MS/MS analysis
[34] = Tmax in human plasma expressing CYP2C9*1/*1 polymorphism at 25 to 32 mg by LC/MS/MS analysis
[35] = Clearance in human plasma expressing CYP2C9*1/*1 polymorphism at 25 to 32 mg by LC/MS/MS analysis
[36] = AUC in human plasma expressing CYP2C9*2 allele carrier polymorphism at 25 to 32 mg by LC/MS/MS analysis
[37] = Cmax in human plasma expressing CYP2C9*2 allele carrier polymorphism at 25 to 32 mg by LC/MS/MS analysis
[38] = Half life in human plasma expressing CYP2C9*2 allele carrier polymorphism at 25 to 32 mg by LC/MS/MS analysis
[39] = Tmax in human plasma expressing CYP2C9*2 allele carrier polymorphism at 25 to 32 mg by LC/MS/MS analysis
[40] = Clearance in human plasma expressing CYP2C9*2 allele carrier polymorphism at 25 to 32 mg by LC/MS/MS analysis
[41] = AUC in human plasma expressing CYP2C9*3 allele carrier polymorphism at 25 to 32 mg by LC/MS/MS analysis
[42] = Cmax in human plasma expressing CYP2C9*3 allele carrier polymorphism at 25 to 32 mg by LC/MS/MS analysis
[43] = Half life in human plasma expressing CYP2C9*3 allele carrier polymorphism at 25 to 32 mg by LC/MS/MS analysis
[44] = Tmax in human plasma expressing CYP2C9*3 allele carrier polymorphism at 25 to 32 mg by LC/MS/MS analysis
[45] = Clearance in human plasma expressing CYP2C9*3 allele carrier polymorphism at 25 to 32 mg by LC/MS/MS analysis
[46] = AUC in human plasma expressing CYP2C8*1/*1 polymorphism treated with losartan at 50 mg by LC/MS/MS analysis
[47] = Cmax in human plasma expressing CYP2C8*1/*1 polymorphism treated with losartan at 50 mg by LC/MS/MS analysis; design: dose 50 mg
[48] = AUC in men plasma treated with losartan at 50 mg by LC/MS/MS analysis; conditions: male, human
[49] = AUC in women plasma treated with losartan at 50 mg by LC/MS/MS analysis; conditions: female, human
[50] = Cmax in men plasma treated with losartan at 50 mg by LC/MS/MS analysis; design: dose 50 mg; conditions: male, human
[51] = Cmax in women plasma treated with losartan at 50 mg by LC/MS/MS analysis; design: dose 50 mg; conditions: female, human
[52] = Half life in men plasma treated with losartan at 50 mg by LC/MS/MS analysis; conditions: male, human
[53] = Half life in women plasma treated with losartan at 50 mg by LC/MS/MS analysis; conditions: female, human
[54] = Tmax in human plasma expressing CYP2C8*1/*1 polymorphism treated with losartan at 50 mg by LC/MS/MS analysis
[55] = AUC in human plasma expressing CYP2C8*3 allele carrier polymorphism treated with losartan at 50 mg by LC/MS/MS analysis
[56] = Cmax in human plasma expressing CYP2C8*3 allele carrier polymorphism treated with losartan at 50 mg by LC/MS/MS analysis; design: dose 50 mg
[57] = Half life in human plasma expressing CYP2C8*3 allele carrier polymorphism treated with losartan at 50 mg by LC/MS/MS analysis
[58] = Tmax in human plasma expressing CYP2C8*3 allele carrier polymorphism treated with losartan at 50 mg by LC/MS/MS analysis
[59] = AUC in human plasma expressing CYP2C8*4 allele carrier polymorphism treated with losartan at 50 mg by LC/MS/MS analysis
[60] = Cmax in human plasma expressing CYP2C8*4 allele carrier polymorphism treated with losartan at 50 mg by LC/MS/MS analysis; design: dose 50 mg
[61] = Half life in human plasma expressing CYP2C8*4 allele carrier polymorphism treated with losartan at 50 mg by LC/MS/MS analysis
[62] = Tmax in human plasma expressing CYP2C8*4 allele carrier polymorphism treated with losartan at 50 mg by LC/MS/MS analysis
[63] = AUC in human plasma expressing CYP2C9*1/*1 polymorphism treated with losartan at 50 mg by LC/MS/MS analysis
[64] = Cmax in human plasma expressing CYP2C9*1/*1 polymorphism treated with losartan at 50 mg by LC/MS/MS analysis; design: dose 50 mg
[65] = Half life in human plasma expressing CYP2C9*1/*1 polymorphism treated with losartan at 50 mg by LC/MS/MS analysis
[66] = Tmax in men plasma treated with losartan at 50 mg by LC/MS/MS analysis; conditions: male, human
[67] = Tmax in women plasma treated with losartan at 50 mg by LC/MS/MS analysis; conditions: female, human
[68] = Half life in human plasma expressing CYP2C8*1/*1 polymorphism treated with losartan at 50 mg by LC/MS/MS analysis
[69] = Tmax in human plasma expressing CYP2C9*1/*1 polymorphism treated with losartan at 50 mg by LC/MS/MS analysis
[70] = AUC in human plasma expressing CYP2C9*2 allele carrier polymorphism treated with losartan at 50 mg by LC/MS/MS analysis
[71] = Cmax in human plasma expressing CYP2C9*2 allele carrier polymorphism treated with losartan at 50 mg by LC/MS/MS analysis; design: dose 50 mg
[72] = Half life in human plasma expressing CYP2C9*2 allele carrier polymorphism treated with losartan at 50 mg by LC/MS/MS analysis
[73] = Tmax in human plasma expressing CYP2C9*2 allele carrier polymorphism treated with losartan at 50 mg by LC/MS/MS analysis
[74] = AUC in human plasma expressing CYP2C9*3 allele carrier polymorphism treated with losartan at 50 mg by LC/MS/MS analysis
[75] = Cmax in human plasma expressing CYP2C9*3 allele carrier polymorphism treated with losartan at 50 mg by LC/MS/MS analysis; design: dose 50 mg
[76] = Half life in human plasma expressing CYP2C9*3 allele carrier polymorphism treated with losartan at 50 mg by LC/MS/MS analysis
[77] = Tmax in human plasma expressing CYP2C9*3 allele carrier polymorphism treated with losartan at 50 mg by LC/MS/MS analysis

Tmax [1]: 4.9 h
clearance [2]: 2.33 mL/min/kg
clearance [3]: 2.5 mL/min/kg
AUC [4]: 3260 ng·h/mL
AUC [5]: 3810 ng·h/mL
Cmax [6]: 216 ng/mL
Cmax [7]: 260 ng/mL
half-life [8]: 11.3 h
half-life [9]: 12.1 h
Tmax [10]: 5.1 h
AUC [11]: 3510 ng·h/mL
Cmax [12]: 242 ng/mL
half-life [13]: 11.7 h
Tmax [14]: 5.2 h
clearance [15]: 2.5 mL/min/kg
AUC [16]: 3580 ng·h/mL
Cmax [17]: 289 ng/mL
half-life [18]: 10.7 h
Tmax [19]: 3.4 h
clearance [20]: 2.5 mL/min/kg
AUC [21]: 3450 ng·h/mL
Cmax [22]: 214 ng/mL
half-life [23]: 12 h
Tmax [24]: 5.1 h
clearance [25]: 2.67 mL/min/kg
AUC [26]: 4130 ng·h/mL
Cmax [27]: 287 ng/mL
half-life [28]: 11.2 h
Tmax [29]: 4.1 h
clearance [30]: 2.17 mL/min/kg
AUC [31]: 3590 ng·h/mL
Cmax [32]: 258 ng/mL
half-life [33]: 10.9 h
Tmax [34]: 5.1 h
clearance [35]: 2.33 mL/min/kg
AUC [36]: 3450 ng·h/mL
Cmax [37]: 217 ng/mL
half-life [38]: 12.8 h
Tmax [39]: 4.8 h
clearance [40]: 2.5 mL/min/kg
AUC [41]: 3630 ng·h/mL
Cmax [42]: 230 ng/mL
half-life [43]: 12.1 h
Tmax [44]: 5 h
clearance [45]: 2.5 mL/min/kg
Structure (SMILES): CCOc1nc2cccc(C(=O)O)c2n1Cc1ccc(-c2ccccc2-c2nnn[nH]2)cc1

AUC [46]: 2330 ng·h/mL
Cmax [47]: 249 ng/mL
AUC [48]: 1810 ng·h/mL
AUC [49]: 2580 ng·h/mL
Cmax [50]: 209 ng/mL
Cmax [51]: 301 ng/mL
half-life [52]: 4.9 h
half-life [53]: 4.8 h
Tmax [54]: 3.9 h
AUC [55]: 1500 ng·h/mL
Cmax [56]: 196 ng/mL
half-life [57]: 5.1 h
Tmax [58]: 3.7 h
AUC [59]: 2270 ng·h/mL
Cmax [60]: 382 ng/mL
half-life [61]: 4.6 h
Tmax [62]: 2.8 h
AUC [63]: 2140 ng·h/mL
Cmax [64]: 292 ng/mL
half-life [65]: 4.6 h
Tmax [66]: 3.7 h
Tmax [67]: 3.7 h
half-life [68]: 4.8 h
Tmax [69]: 3.7 h
AUC [70]: 1770 ng·h/mL
Cmax [71]: 224 ng/mL
half-life [72]: 4.9 h
Tmax [73]: 3.5 h
AUC [74]: 2860 ng·h/mL
Cmax [75]: 154 ng/mL
half-life [76]: 5.7 h
Tmax [77]: 4.3 h
Structure (SMILES): CCCCc1nc(Cl)c(C(=O)O)n1Cc1ccc(-c2ccccc2-c2nn[nH]n2)cc1 [CARBOXYLIC ACID METABOLITE]
